Reference: ChEMBL document CHEMBL6078680, “Improving the Stability and Anti-Infective Activity of Sea Turtle AMPs Using Multiple Structural Modification Strategies” (J Med Chem, 2024)
The source made the active and inactive calls. The rule behind the calls is not given here. Positions of bridges follow the written chain, without caps; N, C: chain ends. Residues, ends and D or L forms follow the SMILES beside them.

Experiments:
Staphylococcus aureus [1] = assay: Antibiofilm activity against Staphylococcus aureus CMCC 26003 assessed as biofilm eradication at 8 times MIC incubated for 24 hrs by crystal violet staining based analysis; assay type: functional
[2] = Hemolytic activity at human Erythrocyte assessed as hemolysis at 100 microg/ml; assay type: toxicity, cell-based; details: erythrocytes, at 100 µg/mL, read-out: Activity
Acinetobacter baumannii [3] = assay: In vivo antibacterial activity against Acinetobacter baumannii ATCC19606 infected in BALB/c mouse assessed as reduction in bacterial load in liver at 15 mg/kg, ip measured after 3 hrs; assay type: functional, organism-based
[4] = Acute toxicity in BALB/c mouse assessed as mortality at 10 mg/kg, iv measured for 24 hrs; assay type: organism-based; details: in vivo, read-out: Activity
Staphylococcus aureus [5] = assay: Antibiofilm activity against Staphylococcus aureus CMCC 26003 assessed as reduction in biofilm formation at 0.5 times MIC incubated for 24 hrs by crystal violet staining based analysis; assay type: functional; parameters: scale not given: the % may be the effect or the level left
Staphylococcus aureus [6] = assay: Antimicrobial activity against Staphylococcus aureus CMCC 26003 at 5 times MIC measured at 180 mins; assay type: functional, organism-based
Peritoneal macrophage = assay: Antiinflammatory activity in mouse Peritoneal macrophage cells assessed as inhibition of LPS-induced IL-6 production at 20 microg/ml incubated for 6 hrs by ELISA analysis; assay type: functional, cell-based; details: dose 20.0 µg/ml
Acinetobacter baumannii [7] = assay: In vivo antibacterial activity against Acinetobacter baumannii ATCC19606 infected in BALB/c mouse assessed as reduction in bacterial load in lung at 15 mg/kg, ip measured after 3 hrs; assay type: functional, organism-based
Escherichia coli [8] = assay: Antibacterial activity against Escherichia coli ATCC 25922 assessed as increase in intracellular ROS production at 2 to 5 times MIC by DCFH-DA staining based assay; assay type: functional, organism-based
Staphylococcus aureus [9] = assay: Antimicrobial activity against Staphylococcus aureus ATCC 43300 assessed as reduction in microbial growth incubated for 18 hrs by broth microdilution method; assay type: functional
Escherichia coli [10] = assay: Drug resistance, ratio of MIC for Escherichia coli ATCC 25922 after 40 passages to MIC for Escherichia coli ATCC 25922 during first exposure; assay type: functional
Staphylococcus aureus [11] = assay: Antimicrobial activity against Staphylococcus aureus CMCC 26003 assessed as fold increase in MIC incubated for 18 hrs in presence of CCCP; assay type: functional
Acinetobacter baumannii [12] = assay: In vivo antibacterial activity against Acinetobacter baumannii ATCC19606 infected in BALB/c mouse assessed as reduction in bacterial load in kidney at 15 mg/kg, ip measured after 3 hrs; assay type: functional, organism-based
Pseudomonas aeruginosa = assay: Antimicrobial activity against Pseudomonas aeruginosa CMCC10104 assessed as reduction in microbial growth incubated for 18 hrs by broth microdilution method; assay type: functional
Acinetobacter baumannii [13] = assay: Antimicrobial activity against Acinetobacter baumannii ATCC19606 assessed as reduction in microbial growth incubated for 18 hrs by broth microdilution method; assay type: functional
Acinetobacter baumannii [14] = assay: In vivo antibacterial activity against Acinetobacter baumannii ATCC19606 infected in BALB/c mouse assessed as survival at 15 mg/kg, ip administered for 12 hrs and measured on day 7; assay type: functional; details: for survival at 15 mg/kg: ATCC19606, 168 h, time 7 day
Salmonella enteritidis = assay: Antimicrobial activity against Salmonella enterica subsp. enterica serovar Enteritidis ATCC 14028 assessed as reduction in microbial growth incubated for 18 hrs by broth microdilution method; assay type: functional
Staphylococcus aureus [15] = assay: Antimicrobial activity against Staphylococcus aureus CMCC 26003 assessed as reduction in microbial growth incubated for 18 hrs by broth microdilution method; assay type: functional
Staphylococcus aureus [16] = assay: Antimicrobial activity against Staphylococcus aureus 08032706 assessed as reduction in microbial growth incubated for 18 hrs by broth microdilution method; assay type: functional
Acinetobacter baumannii [17] = assay: Antipersister-activity against Acinetobacter baumannii ATCC 19606 assessed as elimination of persister cells at 50 times MIC preincubated adherent persistent cells with colistin incubation for 24 hrs; assay type: functional
[18] = test system: Staphylococcus epidermidis; assay: Antimicrobial activity against Staphylococcus epidermidis assessed as reduction in microbial growth incubated for 18 hrs by broth microdilution method; assay type: functional
Enterococcus faecalis = assay: Antimicrobial activity against Enterococcus faecalis ATCC 29217 assessed as reduction in microbial growth incubated for 18 hrs by broth microdilution method; assay type: functional
[19] = Acute toxicity in BALB/c mouse assessed as effect on ALT level at 10 mg/kg, iv measured for 24 hrs; assay type: organism-based; details: in vivo
Acinetobacter baumannii [20] = assay: In vivo antibacterial activity against Acinetobacter baumannii ATCC19606 infected in BALB/c mouse assessed as reduction in bacterial load in kidney at 15 mg/kg, ip measured after 12 hrs; assay type: functional, organism-based
Acinetobacter baumannii [21] = assay: In vivo antibacterial activity against Acinetobacter baumannii ATCC19606 infected in BALB/c mouse assessed as reduction in bacterial load in lung at 15 mg/kg, ip measured after 12 hrs; assay type: functional, organism-based
[22] = Acute toxicity in BALB/c mouse assessed as mortality at 20 mg/kg, iv measured for 24 hrs; assay type: organism-based; details: in vivo, read-out: Activity
Staphylococcus aureus [23] = assay: Bactericidal activity against Staphylococcus aureus CMCC 26003 assessed as bacterial eradication incubated at 0.5 hrs in presence of thiourea; assay type: functional, organism-based
[24] = Acute toxicity in BALB/c mouse assessed as mortality at 50 mg/kg, iv measured for 24 hrs; assay type: organism-based; details: in vivo, read-out: Activity
Escherichia coli [25] = assay: Antimicrobial activity against Escherichia coli ATCC 25922 assessed as reduction in microbial growth incubated for 18 hrs by broth microdilution method; assay type: functional
Clostridium perfringens = assay: Antimicrobial activity against Clostridium perfringens ATCC 13124 assessed as reduction in microbial growth incubated for 18 hrs by broth microdilution method; assay type: functional
Cell membrane [26] = assay: Disruption of cell membrane integrity in Staphylococcus aureus CMCC 26003 assessed as cell membrane damage at 5 times MIC measured after 30 mins by scanning electron microscopic analysis; assay type: subcellular
Acinetobacter baumannii [27] = assay: Drug resistance, ratio of MIC for Acinetobacter baumannii ATCC1960 after 40 passages to MIC for Acinetobacter baumannii ATCC1960 during first exposure; assay type: functional
Escherichia coli [28] = assay: Antibacterial activity against Escherichia coli ATCC 25922 at 1 times MIC in presence of exogenous DNA; assay type: functional, organism-based
Staphylococcus aureus [29] = assay: Antibiofilm activity against Staphylococcus aureus CMCC 26003 assessed as biofilm eradication incubated for 24 hrs by crystal violet staining based analysis; assay type: functional, organism-based
Acinetobacter baumannii [30] = assay: Antibiofilm activity against Acinetobacter baumannii ATCC 19606 assessed as biofilm eradication incubated for 24 hrs by crystal violet staining based analysis; assay type: functional, organism-based
Escherichia coli [31] = assay: Antimicrobial activity against Escherichia coli CMCC44102 assessed as reduction in microbial growth incubated for 18 hrs by broth microdilution method; assay type: functional
Enterococcus faecium = assay: Antimicrobial activity against Enterococcus faecium 34 assessed as reduction in microbial growth incubated for 18 hrs by broth microdilution method; assay type: functional
Staphylococcus aureus [32] = assay: Antibacterial activity against Staphylococcus aureus CMCC 26003 assessed as increase in intracellular ROS production incubated for 1 hr by DCFH-DA staining based assay; assay type: functional, organism-based
Cell membrane [33] = assay: Disruption of cell membrane integrity in Escherichia coli ATCC 25922 assessed as cell membrane damage at 5 times MIC measured after 30 mins by scanning electron microscopic analysis; assay type: subcellular
Escherichia coli [34] = assay: Antibacterial activity against Escherichia coli ATCC 25922 assessed as increase in intracellular ROS production at 1 times MIC by DCFH-DA staining based assay; assay type: functional, organism-based

Structure (SMILES)	hemolysis at 100 microg/ml [2] [%]	Activity (Acinetobacter baumannii [3])	mortality at 24 h [4] [%]	Activity (Staphylococcus aureus [5]) [%]	Activity (Peritoneal macrophage)	Activity (Acinetobacter baumannii [7])	MIC (Staphylococcus aureus [9]) [µg/mL]	Activity (Acinetobacter baumannii [12])	MIC (Pseudomonas aeruginosa) [µg/mL]	MIC (Acinetobacter baumannii [13]) [µg/mL]	MIC (Salmonella enteritidis) [µg/mL]	MIC (Staphylococcus aureus [15]) [µg/mL]	MIC (Staphylococcus aureus [16]) [µg/mL]	Activity (Acinetobacter baumannii [17]) [%]	MIC [18] [µg/mL]	MIC (Enterococcus faecalis) [µg/mL]	Activity [19]	Activity (Acinetobacter baumannii [20])	Activity (Acinetobacter baumannii [21])	mortality at 24 h [22] [%]	further results
CC[C@H](C)[C@H](NC(=O)[C@@H](CCCNC(=N)N)NC(=O)[C@H](CO)NC(=O)[C@H](Cc1c[nH]cn1)NC(=O)[C@@H](CCCNC(=N)N)NC(=O)[C@H](CC(C)C)NC(=O)[C@@H](NC(=O)[C@@H](CCCNC(=N)N)NC(=O)CNC(=O)[C@H](CC(C)C)NC(=O)[C@H](CCC(N)=O)NC(=O)[C@@H](CCCCN)NC(=O)[C@@H](CCCNC(=N)N)NC(=O)[C@@H](NC(=O)[C@@H](CCCCN)NC(=O)[C@@H](CCCCN)NC(=O)[C@@H](N)Cc1ccccc1)C(C)C)C(C)C)C(=O)N[C@H](C(=O)N[C@H](C(=O)NCC(=O)NCC(=O)N[C@H](CCCNC(=N)N)C(=O)N[C@@H](CCSC)C(=O)N[C@H](CCCNC(=N)N)C(=O)N[C@@H](Cc1ccccc1)C(=O)O)C(C)C)[C@@H](C)O	< 5	Active	0	20	Active	Active	> 100	Active	> 100	18.8	37.5	75	75	60	75	37.5	Non-toxic	Active	Active	33	Activity (Staphylococcus aureus [1]): 50%; Activity (Staphylococcus aureus [6]): inactive; Activity (Escherichia coli [8]): Active; Ratio (Escherichia coli [10]): 1; fold change (FC) (Staphylococcus aureus [11]): 32; Activity (Acinetobacter baumannii [14]; time 7.0 day): Active; Activity (Staphylococcus aureus [23]): Active; mortality at 24 h [24]: 0%; MIC (Escherichia coli [25]): 18.8 µg/mL; MIC (Clostridium perfringens): 18.8 µg/mL; Activity (Cell membrane [26]): Active; Ratio (Acinetobacter baumannii [27]): 1; Activity (Escherichia coli [28]): Active; Activity (Staphylococcus aureus [29]): Active; Activity (Acinetobacter baumannii [30]): Active; MIC (Escherichia coli [31]): 18.8 µg/mL; MIC (Enterococcus faecium): 75 µg/mL; Activity (Staphylococcus aureus [32]): Dose-dependent-effect; Activity (Cell membrane [33]): Active
CC[C@H](C)[C@H](NC(=O)[C@H](CCCNC(=N)N)NC(=O)[C@H](CO)NC(=O)[C@H](Cc1c[nH]cn1)NC(=O)[C@H](CCCNC(=N)N)NC(=O)[C@H](CC(C)C)NC(=O)[C@@H](NC(=O)[C@H](CCCNC(=N)N)NC(=O)CNC(=O)[C@H](CC(C)C)NC(=O)[C@H](CCC(N)=O)NC(=O)[C@H](CCCCN)NC(=O)[C@H](CCCNC(=N)N)NC(=O)[C@@H](NC(=O)[C@H](CCCCN)NC(=O)[C@H](CCCCN)NC(=O)[C@@H](N)Cc1ccccc1)C(C)C)C(C)C)C(=O)N[C@H](C(=O)N[C@H](C(=O)NCC(=O)NCC(=O)N[C@@H](CCCNC(=N)N)C(=O)N[C@@H](CCSC)C(=O)N[C@@H](CCCNC(=N)N)C(=O)N[C@@H](Cc1ccccc1)C(=O)O)C(C)C)[C@@H](C)O	< 5	Active	0	20	Active	Active	75	Active	4.69	4.69	1.17	2.34	9.38	60	18.8	4.69	Non-toxic	Active	Active	0	Activity (Escherichia coli [8]): Active; survival at 15 mg/kg (Acinetobacter baumannii [14]): 40%; Activity (Staphylococcus aureus [23]): Active; mortality at 24 h [24]: 16.7%; MIC (Escherichia coli [25]): 2.34 µg/mL; MIC (Clostridium perfringens): 2.34 µg/mL; Activity (Cell membrane [26]): Active; Ratio (Acinetobacter baumannii [27]): 1; Activity (Escherichia coli [28]): Active; Activity (Escherichia coli [34]): Active; Activity (Staphylococcus aureus [29]): Active; Activity (Acinetobacter baumannii [30]): Active; MIC (Escherichia coli [31]): 2.34 µg/mL; MIC (Enterococcus faecium): 18.8 µg/mL; Activity (Staphylococcus aureus [32]): Dose-dependent-effect
CC[C@H](C)[C@H](NC(=O)[C@H](CCCNC(=N)N)NC(=O)[C@H](CO)NC(=O)[C@@H]1CSSC[C@H](N)C(=O)N[C@@H](Cc2ccccc2)C(=O)N[C@@H](CCCCN)C(=O)N[C@@H](CCCCN)C(=O)N[C@@H](C(C)C)C(=O)N[C@@H](CCCNC(=N)N)C(=O)N[C@@H](CCCCN)C(=O)N[C@@H](CCC(N)=O)C(=O)N[C@@H](CC(C)C)C(=O)NCC(=O)N[C@@H](CCCNC(=N)N)C(=O)N[C@@H](C(C)C)C(=O)N[C@@H](CC(C)C)C(=O)N[C@@H](CCCNC(=N)N)C(=O)N[C@@H](Cc2c[nH]cn2)C(=O)N1)C(=O)N[C@H](C(=O)N[C@H](C(=O)NCC(=O)NCC(=O)N[C@@H](CCCNC(=N)N)C(=O)N[C@@H](CCSC)C(=O)N[C@@H](CCCNC(=N)N)C(=O)N[C@@H](Cc1ccccc1)C(=O)O)C(C)C)[C@@H](C)O (H-CFKKVRKQLGRVLRHCSRITVGGRMRF-OH; disulfide 1-16)	< 5	Active	0	20	Active	Active	18.8	Active	9.38	18.8	9.38	18.8	9.38	60	9.38	37.5	Non-toxic	Active	Active	100	Activity (Staphylococcus aureus [1]): 74.3%; Activity (Staphylococcus aureus [6]): inactive; Ratio (Escherichia coli [10]): 1; fold change (FC) (Staphylococcus aureus [11]): 32; survival at 15 mg/kg (Acinetobacter baumannii [14]): 40%; mortality at 24 h [24]: 50%; MIC (Escherichia coli [25]): 4.69 µg/mL; MIC (Clostridium perfringens): 9.38 µg/mL; Activity (Cell membrane [26]): Active; Ratio (Acinetobacter baumannii [27]): 1; Activity (Escherichia coli [28]): Active; Activity (Escherichia coli [34]): Active; Activity (Staphylococcus aureus [29]): Active; Activity (Acinetobacter baumannii [30]): Active; MIC (Escherichia coli [31]): 4.69 µg/mL; MIC (Enterococcus faecium): 9.38 µg/mL; Activity (Staphylococcus aureus [32]): Dose-dependent-effect; Activity (Cell membrane [33]): Active
